Source: patent US10435399B2, “HDAC6 inhibitory heterocyclic compound” (TAKEDA PHARMACEUTICAL COMPANY LIMITED, priority 2017, dated 2019)

target: T1, HDAC6 enzyme (Homo sapiens, UniProt Q9UBN7); experiment: HDAC6 enzyme inhibitory activity (HDAC-Glo I/II Assay kit); assay type: biochemical; conditions: 10 μM; wells without enzyme = 100% inhibition; read-out: HDAC6 inhibitory rate (%) (10 μM)
T1 construct: transducing full length HDAC6 gene into Sf-9 insect cells; GST; purchased SignalChem; host or cells: Sf-9 insect cells
T1 sequence (Q9UBN7 1-1215): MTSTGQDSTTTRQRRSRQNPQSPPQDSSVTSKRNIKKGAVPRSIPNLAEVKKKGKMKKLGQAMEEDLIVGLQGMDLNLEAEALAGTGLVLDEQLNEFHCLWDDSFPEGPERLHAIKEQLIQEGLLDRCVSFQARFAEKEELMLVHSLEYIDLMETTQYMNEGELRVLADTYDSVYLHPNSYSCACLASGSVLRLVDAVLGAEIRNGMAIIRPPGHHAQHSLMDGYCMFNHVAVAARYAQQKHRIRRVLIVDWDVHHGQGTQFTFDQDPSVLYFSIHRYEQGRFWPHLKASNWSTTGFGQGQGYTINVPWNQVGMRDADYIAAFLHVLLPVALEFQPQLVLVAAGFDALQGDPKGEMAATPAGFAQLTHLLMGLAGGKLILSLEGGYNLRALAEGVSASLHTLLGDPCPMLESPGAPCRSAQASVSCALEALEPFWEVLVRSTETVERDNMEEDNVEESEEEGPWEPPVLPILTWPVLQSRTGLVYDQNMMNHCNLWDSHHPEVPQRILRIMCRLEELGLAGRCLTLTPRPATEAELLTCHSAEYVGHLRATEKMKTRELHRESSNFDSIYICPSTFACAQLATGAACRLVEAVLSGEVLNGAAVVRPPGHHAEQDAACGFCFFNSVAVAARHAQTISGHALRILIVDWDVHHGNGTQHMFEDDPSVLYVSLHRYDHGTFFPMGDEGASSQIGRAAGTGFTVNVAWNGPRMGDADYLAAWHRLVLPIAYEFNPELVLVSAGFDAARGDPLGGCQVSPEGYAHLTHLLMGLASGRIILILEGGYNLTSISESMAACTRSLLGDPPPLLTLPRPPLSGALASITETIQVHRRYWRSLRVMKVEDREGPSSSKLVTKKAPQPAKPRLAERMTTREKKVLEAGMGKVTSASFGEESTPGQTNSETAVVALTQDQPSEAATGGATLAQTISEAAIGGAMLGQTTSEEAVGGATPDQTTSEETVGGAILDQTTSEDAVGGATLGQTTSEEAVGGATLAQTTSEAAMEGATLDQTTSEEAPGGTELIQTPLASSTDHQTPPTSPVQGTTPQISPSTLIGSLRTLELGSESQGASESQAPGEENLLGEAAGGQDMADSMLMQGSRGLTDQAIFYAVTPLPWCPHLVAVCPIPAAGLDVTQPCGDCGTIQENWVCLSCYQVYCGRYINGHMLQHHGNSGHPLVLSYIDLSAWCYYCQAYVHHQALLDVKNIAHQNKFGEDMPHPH
Outline: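 Full-length human HDAC6 (GST-purified, Sf-9 expressed) preincubated with compound 60 min at room temperature in Tris-HCl pH 7.5 buffer with MgCl2, KCl, NaCl, glutathione, Tween-20. HDAC-Glo I/II substrate-developer then added, 20 min room temperature, luminescence read. Inhibition relative to no-enzyme wells as 100%.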

SMILES | inhibition at 10 µM [%]
O=C1c2cc(-c3nnc(C(F)F)o3)cc(F)c2CN1C[C@@H]1CCCN1S(=O)(=O)C1CC1 [Example 336, 2-(((2S)-1-(cyclopropyl-sulfonyl)pyrrolidin-2-yl)methyl)-6-(5-(difluoromethyl)-1,3,4-oxadiazol-2-yl)-4-fluoroisoindolin-1-one] | 102
O=C1c2cc(-c3nnc(C(F)F)o3)ccc2CN1[C@@H]1CCCC[C@H]1N(C(=O)C(F)F)c1ccccn1 [Example 337, N-((1R,2R)-2-(6-(5-(difluoromethyl)-1,3,4-oxadiazol-2-yl)-1-oxo-1,3-dihydro-2H-isoindol-2-yl)-cyclohexyl)-2,2-difluoro-N-(pyridin-2-yl)acetamide] | 101
O=C1c2cc(-c3nnc(C(F)F)o3)cnc2CN1Cc1ccc(F)c(F)c1 [Example 338, 6-(3,4-difluorobenzyl)-3-(5-(difluoromethyl)-1,3,4-oxadiazol-2-yl)-6,7-dihydro-5H-pyrrolo[3,4-b]pyridin-5-one] | 97
O=C1c2cc(-c3nnc(C(F)F)o3)cnc2CN1Cc1ccccc1C(F)(F)F [Example 339, 3-(5-(difluoromethyl)-1,3,4-oxadiazol-2-yl)-6-(2-(trifluoromethyl)benzyl)-6,7-dihydro-5H-pyrrolo[3,4-b]-pyridin-5-one] | 96
O=C1c2cc(-c3nnc(C(F)F)o3)cnc2CN1Cc1ccccc1Cl [Example 340, 6-(2-chlorobenzyl)-3-(5-(difluoromethyl)-1,3,4-oxadiazol-2-yl)-6,7-dihydro-5H-pyrrolo[3,4-b]pyridin-5-one] | 96
CC(C)(C)OC(=O)NCC1(N2Cc3c(F)cc(-c4nnc(C(F)F)o4)cc3C2=O)CCCCC1 [Example 341, tert-butyl ((1-(6-(5-(difluoromethyl)-1,3,4-oxadiazol-2-yl)-4-fluoro-1-oxo-1,3-dihydro-2H-isoindol-2-yl)cyclohexyl)-methyl)carbamate] | 82
O=C1c2cc(-c3nnc(C(F)F)o3)cnc2CN1Cc1cccc(Cl)c1 [Example 342, 6-(3-chlorobenzyl)-3-(5-(difluoromethyl)-1,3,4,- oxadiazol-2-yl)-6,7-dihydro-5H-pyrrolo[3,4-b]pyridin-5-one] | 100
O=C1c2cc(-c3nnc(C(F)F)o3)cc(F)c2CN1C[C@@H]1CC(F)(F)CN1S(=O)(=O)C1CC1 [Example 343, 2-(((2S)-1-(cyclopropyl-sulfonyl)-4,4-difluoro-pyrrolidin-2-yl)methyl)-6-(5-(difluoromethyl)-1,3,4-oxadiazol-2-yl)-4-fluoroisoindolin-1-one] | 100
O=C1c2cc(-c3nnc(C(F)F)o3)cc(F)c2CN1C[C@@H]1CC(F)(F)CN1S(=O)(=O)CC(F)(F)F [Example 344, 6-(5-(difluoromethyl)-1,3,4-oxadiazol-2-yl)-2-(((2S)-4,4-difluoro-1-((2,2,2-trifluoro-ethyl)sulfonyl)pyrrolidin-2-yl)methyl)-4-fluoroiso-indolin-1-one] | 100
O=C1c2cc(-c3nnc(C(F)F)o3)cc(F)c2CN1C[C@@H]1CC(F)(F)CN1S(=O)(=O)c1cccc(F)c1 [Example 345, 2-(((2S)-4,4-difluoro-1-((3-fluorophenyl)sulfonyl)-pyrrolidin-2-yl)methyl)-6-(5-(difluoromethyl)-1,3,4-oxadiazol-2-yl)-4-fluoro-isoindolin-1-one] | 99
O=C1c2cc(-c3nnc(C(F)F)o3)cnc2CN1Cc1ccncc1 [Example 346, 3-(5-(difluoromethyl)-1,3,4-oxadiazol-2-yl)-6-(pyridin-4-ylmethyl)-6,7-dihydro-5H-pyrrolo[3,4-b]pyridin-5-one] | 94
O=C1c2cc(-c3nnc(C(F)F)o3)cnc2CN1C1(c2ccc(F)cc2)CC1 [Example 347, 3-(5-(difluoromethyl)-1,3,4-oxadiazol-2-yl)-6-(1-(4-fluorophenyl)cyclopropyl)-6,7-dihydro-5H-pyrrolo[3,4-b]pyridin-5-one] | 98
O=C1c2cc(-c3nnc(C(F)F)o3)cnc2CN1Cc1ccc(F)cc1F [Example 348, 6-(2,4-difluorobenzyl)-3-(5-(difluoromethyl)-1,3,4-oxadiazol-2-yl)-6,7-dihydro-5H-pyrrolo-[3,4-b]pyridin-5-one] | 99
Cc1cc(CN2Cc3ncc(-c4nnc(C(F)F)o4)cc3C2=O)no1 [Example 349, 3-(5-(difluoromethyl)-1,3,4-oxadiazol-2-yl)-6-((5-methyl-1,2-oxazol-3-yl)methyl)-6,7-dihydro-5H-pyrrolo[3,4-b]pyridin-5-one] | 99
O=C1c2cc(-c3nnc(C(F)F)o3)cnc2CN1C1(c2ccccc2F)CC1 [Example 350, 3-(5-(difluoromethyl)-1,3,4-oxadiazol-2-yl)-6-(1-(2-fluorophenyl)cyclopropyl)-6,7-dihydro-5H-pyrrolo[3,4-b]pyridin-5-one] | 99
O=C1c2cc(-c3nnc(C(F)F)o3)cnc2CN1Cc1ccccc1F [Example 351, 3-(5-(difluoromethyl)-1,3,4-oxadiazol-2-yl)-6-(2-fluoro-benzyl)-6,7-dihydro-5H-pyrrolo[3,4-b]pyridin-5-one] | 98
CC(C)(C)OC(=O)N1CC(F)(F)C[C@@H]1CN1Cc2c(F)cc(-c3nnc(C(F)F)o3)cc2C1=O [Example 352, tert-butyl (2R)-2-((6-(5-(difluoromethyl)-1,3,4-oxadiazol-2-yl)-4-fluoro-1-oxo-1,3-dihydro-2H-isoindol-2-yl)methyl)-4,4-difluoropyrrolidine-1-carboxylate] | 99
O=C1c2cc(-c3nnc(C(F)F)o3)cnc2CN1Cc1cc(F)cc(F)c1 [Example 353, 6-(3,5-difluorobenzyl)-3-(5-(difluoromethyl)-1,3,4-oxadiazol-2-yl)-6,7-dihydro-5H-pyrrolo[3,4-b]pyridin-5-one] | 98
O=C1c2cc(-c3nnc(C(F)F)o3)cc(F)c2CN1C[C@H]1CC(F)(F)CN1 [Example 354, 6-(5-(difluoromethyl)-1,3,4-oxadiazol-2-yl)-2-(((2R)-4,4-difluoropyrrolidin-2-yl)-methyl)-4-fluoroisoindolin-1-one] | 92
O=C1c2cc(-c3nnc(C(F)F)o3)cnc2CN1Cc1cccc(C(F)(F)F)c1 [Example 355] | 100
O=C1c2cc(-c3nnc(C(F)F)o3)cc(F)c2CN1C[C@H]1CC(F)(F)CN1S(=O)(=O)C1CC1 [Example 356, 2-(((2R)-1-(cyclopropyl-sulfonyl)-4,4-difluoro-pyrrolidin-2-yl)methyl)-6-(5-(difluoromethyl)-1,3,4-oxadiazol-2-yl)-4-fluoro-isoindolin-1-one] | 101
COc1ccccc1CN1Cc2ncc(-c3nnc(C(F)F)o3)cc2C1=O [Example 357, 3-(5-(difluoromethyl)-1,3,4-oxadiazol-2-yl)-6-(2-methoxybenzyl)-6,7-dihydro-5H-pyrrolo[3,4-b]-pyridin-5-one] | 98
O=C1c2cc(-c3nnc(C(F)F)o3)cnc2CN1Cc1ccccc1OC(F)F [Example 358, 6-(2-(difluoromethoxy)-benzyl)-3-(5-(difluoro-methyl)-1,3,4-oxadiazol-2-yl)-6,7-dihydro-5H-pyrrolo-[3,4-b]pyridin-5-one] | 102
O=C1c2cc(-c3nnc(C(F)F)o3)cnc2CN1Cc1cccnc1 [Example 359, 3-(5-(difluoromethyl)-1,3,4-oxadiazol-2-yl)-6-(pyridin-3-ylmethyl)-6,7-dihydro-5H-pyrrolo[3,4-b]pyridin-5-one] | 97
O=C1c2cc(-c3nnc(C(F)F)o3)cc(F)c2CN1[C@@H]1CCOC[C@H]1NCC(F)(F)F [Example 360, 6-(5-(difluoromethyl)-1,3,4-oxadiazol-2-yl)-4-fluoro-2-((3S,4R)-3-((2,2,2-trifluoro-ethyl)amino)tetrahydro-2H-pyran-4-yl)isoindolin-1-one] | 103
